Experimental data reported in ChEMBL document CHEMBL3991601, “The target landscape of clinical kinase drugs” (Science, 2017).
Structures can show the parent of a compound that is named as a salt. Active and inactive are the calls of the source.

Key:
[1] = molecular target: T1, Glycogen phosphorylase, brain form (Homo sapiens, UniProt P11216)
T1 sequence (P11216 whole entry): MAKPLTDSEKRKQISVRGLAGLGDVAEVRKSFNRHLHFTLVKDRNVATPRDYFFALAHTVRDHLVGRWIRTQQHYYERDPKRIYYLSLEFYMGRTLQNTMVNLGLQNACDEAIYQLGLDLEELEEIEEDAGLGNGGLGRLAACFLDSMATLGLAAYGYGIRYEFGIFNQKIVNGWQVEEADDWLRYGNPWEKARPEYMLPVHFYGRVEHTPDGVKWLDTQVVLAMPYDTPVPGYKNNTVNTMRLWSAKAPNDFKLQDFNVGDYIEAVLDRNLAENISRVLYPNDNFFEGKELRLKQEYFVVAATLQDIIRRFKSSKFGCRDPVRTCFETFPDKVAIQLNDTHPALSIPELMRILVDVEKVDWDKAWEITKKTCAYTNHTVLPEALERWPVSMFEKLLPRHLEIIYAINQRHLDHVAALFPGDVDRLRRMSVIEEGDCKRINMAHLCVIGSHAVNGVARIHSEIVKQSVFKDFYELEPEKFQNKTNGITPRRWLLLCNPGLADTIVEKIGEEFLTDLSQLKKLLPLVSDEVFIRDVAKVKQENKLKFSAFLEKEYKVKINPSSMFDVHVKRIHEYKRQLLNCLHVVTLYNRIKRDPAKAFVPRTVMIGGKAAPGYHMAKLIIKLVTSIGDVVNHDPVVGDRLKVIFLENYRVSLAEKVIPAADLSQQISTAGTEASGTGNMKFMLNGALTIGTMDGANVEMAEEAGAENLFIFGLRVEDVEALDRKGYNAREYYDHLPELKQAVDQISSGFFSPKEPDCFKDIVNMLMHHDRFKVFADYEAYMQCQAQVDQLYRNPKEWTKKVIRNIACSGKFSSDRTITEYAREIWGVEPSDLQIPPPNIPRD

[2] = molecular target: Mitotic checkpoint serine/threonine-protein kinase BUB1 (Homo sapiens, UniProt O43683)
Chain of Mitotic checkpoint serine/threonine-protein kinase BUB1 (O43683 whole entry): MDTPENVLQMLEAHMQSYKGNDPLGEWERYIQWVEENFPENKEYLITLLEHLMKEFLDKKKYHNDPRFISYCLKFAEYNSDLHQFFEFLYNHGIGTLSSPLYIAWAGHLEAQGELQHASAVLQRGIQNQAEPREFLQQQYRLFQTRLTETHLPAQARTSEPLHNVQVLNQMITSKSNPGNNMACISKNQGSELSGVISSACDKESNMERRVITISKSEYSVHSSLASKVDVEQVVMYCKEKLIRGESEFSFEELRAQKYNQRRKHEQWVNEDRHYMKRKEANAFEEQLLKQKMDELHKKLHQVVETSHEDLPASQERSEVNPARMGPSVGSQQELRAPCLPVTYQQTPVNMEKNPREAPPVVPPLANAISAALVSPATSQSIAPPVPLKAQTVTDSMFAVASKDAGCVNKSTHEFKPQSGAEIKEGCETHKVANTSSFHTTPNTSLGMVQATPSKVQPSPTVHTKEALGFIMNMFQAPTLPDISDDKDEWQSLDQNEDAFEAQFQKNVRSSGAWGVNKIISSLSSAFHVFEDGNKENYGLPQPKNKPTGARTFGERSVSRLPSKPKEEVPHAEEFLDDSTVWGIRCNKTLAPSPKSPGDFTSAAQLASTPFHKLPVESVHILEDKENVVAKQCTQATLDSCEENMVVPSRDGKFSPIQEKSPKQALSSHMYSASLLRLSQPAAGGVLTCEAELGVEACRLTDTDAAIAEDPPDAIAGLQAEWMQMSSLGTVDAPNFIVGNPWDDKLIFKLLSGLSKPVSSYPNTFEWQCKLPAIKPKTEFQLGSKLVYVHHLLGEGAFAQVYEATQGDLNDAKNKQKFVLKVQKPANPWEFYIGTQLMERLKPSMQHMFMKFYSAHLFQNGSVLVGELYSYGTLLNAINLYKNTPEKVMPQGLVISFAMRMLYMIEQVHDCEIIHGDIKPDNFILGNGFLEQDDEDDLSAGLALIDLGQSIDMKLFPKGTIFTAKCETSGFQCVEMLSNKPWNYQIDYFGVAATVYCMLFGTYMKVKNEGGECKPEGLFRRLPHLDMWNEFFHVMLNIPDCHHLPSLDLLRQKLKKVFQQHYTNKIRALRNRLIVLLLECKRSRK

[3] = molecular target: T2, Ras-related protein Rab-27A (Homo sapiens, UniProt P51159)
T2 sequence (P51159 whole entry): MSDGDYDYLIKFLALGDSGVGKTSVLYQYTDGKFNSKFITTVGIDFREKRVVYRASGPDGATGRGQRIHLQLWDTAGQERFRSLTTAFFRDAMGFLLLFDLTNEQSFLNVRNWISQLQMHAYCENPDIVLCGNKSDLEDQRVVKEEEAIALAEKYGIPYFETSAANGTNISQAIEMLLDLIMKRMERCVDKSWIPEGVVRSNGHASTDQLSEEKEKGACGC

[4] = molecular target: Serine/threonine-protein kinase MRCK alpha (Homo sapiens, UniProt Q5VT25)
[5] = molecular target: Mitogen-activated protein kinase 3 (Homo sapiens, UniProt P27361)
Chain of Mitogen-activated protein kinase 3 (P27361 whole entry): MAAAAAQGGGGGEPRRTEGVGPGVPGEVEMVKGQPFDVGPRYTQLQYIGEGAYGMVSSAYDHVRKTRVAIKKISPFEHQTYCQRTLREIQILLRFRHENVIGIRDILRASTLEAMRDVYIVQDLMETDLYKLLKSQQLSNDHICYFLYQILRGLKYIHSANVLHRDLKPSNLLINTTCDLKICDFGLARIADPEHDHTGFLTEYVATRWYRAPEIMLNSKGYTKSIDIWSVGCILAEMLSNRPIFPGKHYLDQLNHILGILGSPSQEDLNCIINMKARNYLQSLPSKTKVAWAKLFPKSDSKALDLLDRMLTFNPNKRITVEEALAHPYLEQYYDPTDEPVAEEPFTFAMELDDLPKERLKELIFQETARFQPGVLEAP

[6] = molecular target: Insulin-like growth factor 1 receptor (Homo sapiens, UniProt P08069)
Chain of Insulin-like growth factor 1 receptor (P08069 31-736 limits assumed): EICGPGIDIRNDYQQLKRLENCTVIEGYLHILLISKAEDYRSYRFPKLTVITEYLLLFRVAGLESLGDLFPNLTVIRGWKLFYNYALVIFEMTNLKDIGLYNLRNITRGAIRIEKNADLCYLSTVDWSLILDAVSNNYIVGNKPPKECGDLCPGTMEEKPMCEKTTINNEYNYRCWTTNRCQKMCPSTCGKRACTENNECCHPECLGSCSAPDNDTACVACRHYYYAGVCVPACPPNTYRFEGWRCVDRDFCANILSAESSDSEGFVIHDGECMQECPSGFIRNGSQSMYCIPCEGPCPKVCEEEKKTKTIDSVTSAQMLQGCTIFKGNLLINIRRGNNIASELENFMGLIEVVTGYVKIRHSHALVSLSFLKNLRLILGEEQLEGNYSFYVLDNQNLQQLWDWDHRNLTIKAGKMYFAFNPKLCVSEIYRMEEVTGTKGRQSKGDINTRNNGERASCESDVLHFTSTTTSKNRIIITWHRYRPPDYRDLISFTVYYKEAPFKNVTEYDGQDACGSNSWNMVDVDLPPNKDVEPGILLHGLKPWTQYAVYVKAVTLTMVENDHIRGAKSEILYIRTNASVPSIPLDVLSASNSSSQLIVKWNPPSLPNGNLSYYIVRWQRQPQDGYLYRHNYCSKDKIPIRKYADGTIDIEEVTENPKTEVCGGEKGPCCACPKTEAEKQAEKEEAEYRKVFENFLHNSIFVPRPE
Chain of Insulin-like growth factor 1 receptor (P08069 741-1367 limits assumed): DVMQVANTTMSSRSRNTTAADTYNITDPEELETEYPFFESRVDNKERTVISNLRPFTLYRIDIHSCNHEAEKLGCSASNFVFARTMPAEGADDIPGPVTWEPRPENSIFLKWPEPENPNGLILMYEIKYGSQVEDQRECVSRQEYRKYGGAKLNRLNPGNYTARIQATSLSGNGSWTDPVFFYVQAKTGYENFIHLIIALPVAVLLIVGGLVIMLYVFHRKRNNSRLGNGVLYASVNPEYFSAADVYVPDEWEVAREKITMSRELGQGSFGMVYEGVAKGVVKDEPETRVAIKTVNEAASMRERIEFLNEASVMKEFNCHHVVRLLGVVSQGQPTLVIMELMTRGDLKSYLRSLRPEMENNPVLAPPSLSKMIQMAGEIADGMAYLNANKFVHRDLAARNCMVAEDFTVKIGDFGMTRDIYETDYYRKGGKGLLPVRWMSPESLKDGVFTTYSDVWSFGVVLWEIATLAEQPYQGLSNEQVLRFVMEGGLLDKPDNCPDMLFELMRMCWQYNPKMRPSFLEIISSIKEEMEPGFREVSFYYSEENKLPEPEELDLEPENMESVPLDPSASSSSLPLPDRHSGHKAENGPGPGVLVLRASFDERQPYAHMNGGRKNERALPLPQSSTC

[7] = molecular target: Tyrosine-protein kinase Lck (Homo sapiens, UniProt P06239)
Chain of Tyrosine-protein kinase Lck (P06239 whole entry): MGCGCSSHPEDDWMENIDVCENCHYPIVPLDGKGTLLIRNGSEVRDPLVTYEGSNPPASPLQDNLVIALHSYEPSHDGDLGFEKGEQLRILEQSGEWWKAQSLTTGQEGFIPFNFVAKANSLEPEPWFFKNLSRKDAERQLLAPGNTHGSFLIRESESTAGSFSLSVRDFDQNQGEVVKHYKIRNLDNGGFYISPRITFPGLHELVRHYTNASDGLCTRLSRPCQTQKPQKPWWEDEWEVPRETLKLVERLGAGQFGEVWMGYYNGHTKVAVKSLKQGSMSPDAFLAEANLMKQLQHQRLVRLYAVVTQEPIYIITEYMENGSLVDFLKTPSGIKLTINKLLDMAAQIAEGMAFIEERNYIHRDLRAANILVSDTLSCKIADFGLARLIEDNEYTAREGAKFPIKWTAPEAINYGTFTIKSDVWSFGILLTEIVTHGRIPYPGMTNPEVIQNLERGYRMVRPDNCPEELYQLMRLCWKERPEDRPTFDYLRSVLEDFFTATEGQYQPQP

[8] = molecular target: MAP kinase-activated protein kinase 2 (Homo sapiens, UniProt P49137)
Chain of MAP kinase-activated protein kinase 2 (P49137 whole entry): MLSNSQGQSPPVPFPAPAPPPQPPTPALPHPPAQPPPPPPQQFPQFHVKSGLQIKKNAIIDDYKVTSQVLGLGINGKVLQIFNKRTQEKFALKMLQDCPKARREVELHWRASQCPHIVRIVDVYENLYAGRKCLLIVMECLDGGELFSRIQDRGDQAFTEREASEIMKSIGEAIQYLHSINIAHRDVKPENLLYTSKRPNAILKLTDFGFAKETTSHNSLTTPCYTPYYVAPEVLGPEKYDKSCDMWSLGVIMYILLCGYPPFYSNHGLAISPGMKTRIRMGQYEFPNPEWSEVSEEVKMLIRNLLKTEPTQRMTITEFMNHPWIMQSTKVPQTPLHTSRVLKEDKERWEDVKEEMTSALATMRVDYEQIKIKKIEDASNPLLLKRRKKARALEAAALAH

[9] = molecular target: Protein kinase C delta type (Homo sapiens, UniProt Q05655)
Chain of Protein kinase C delta type (Q05655 whole entry): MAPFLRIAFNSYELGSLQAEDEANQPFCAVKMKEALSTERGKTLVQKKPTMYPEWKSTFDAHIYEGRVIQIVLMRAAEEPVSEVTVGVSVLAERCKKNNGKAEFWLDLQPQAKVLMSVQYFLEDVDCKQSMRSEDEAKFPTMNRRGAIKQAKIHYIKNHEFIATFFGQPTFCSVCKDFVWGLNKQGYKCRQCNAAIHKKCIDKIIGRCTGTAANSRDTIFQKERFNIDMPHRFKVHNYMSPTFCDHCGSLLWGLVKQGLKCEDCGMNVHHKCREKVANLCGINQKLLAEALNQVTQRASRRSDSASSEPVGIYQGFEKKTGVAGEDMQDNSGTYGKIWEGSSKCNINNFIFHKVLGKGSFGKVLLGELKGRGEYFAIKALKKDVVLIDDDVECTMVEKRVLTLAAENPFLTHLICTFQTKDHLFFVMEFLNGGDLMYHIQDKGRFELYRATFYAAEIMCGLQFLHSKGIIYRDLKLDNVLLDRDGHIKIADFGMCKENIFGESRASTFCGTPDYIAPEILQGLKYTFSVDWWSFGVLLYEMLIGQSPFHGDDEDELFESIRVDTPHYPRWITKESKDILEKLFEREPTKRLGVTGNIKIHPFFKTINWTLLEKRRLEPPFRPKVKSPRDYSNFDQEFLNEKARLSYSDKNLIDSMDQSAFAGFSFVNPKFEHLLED

[10] = molecular target: Membrane-associated progesterone receptor component 1 (Homo sapiens, UniProt O00264)
Chain of Membrane-associated progesterone receptor component 1 (O00264 whole entry): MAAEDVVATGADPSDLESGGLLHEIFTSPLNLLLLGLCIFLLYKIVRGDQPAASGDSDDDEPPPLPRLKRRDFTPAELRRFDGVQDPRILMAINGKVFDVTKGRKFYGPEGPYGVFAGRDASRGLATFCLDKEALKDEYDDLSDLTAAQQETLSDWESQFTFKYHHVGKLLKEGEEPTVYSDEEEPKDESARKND

[11] = molecular target: T3, Serine/threonine-protein kinase ICK (Homo sapiens, UniProt Q9UPZ9)
T3 sequence (Q9UPZ9 whole entry): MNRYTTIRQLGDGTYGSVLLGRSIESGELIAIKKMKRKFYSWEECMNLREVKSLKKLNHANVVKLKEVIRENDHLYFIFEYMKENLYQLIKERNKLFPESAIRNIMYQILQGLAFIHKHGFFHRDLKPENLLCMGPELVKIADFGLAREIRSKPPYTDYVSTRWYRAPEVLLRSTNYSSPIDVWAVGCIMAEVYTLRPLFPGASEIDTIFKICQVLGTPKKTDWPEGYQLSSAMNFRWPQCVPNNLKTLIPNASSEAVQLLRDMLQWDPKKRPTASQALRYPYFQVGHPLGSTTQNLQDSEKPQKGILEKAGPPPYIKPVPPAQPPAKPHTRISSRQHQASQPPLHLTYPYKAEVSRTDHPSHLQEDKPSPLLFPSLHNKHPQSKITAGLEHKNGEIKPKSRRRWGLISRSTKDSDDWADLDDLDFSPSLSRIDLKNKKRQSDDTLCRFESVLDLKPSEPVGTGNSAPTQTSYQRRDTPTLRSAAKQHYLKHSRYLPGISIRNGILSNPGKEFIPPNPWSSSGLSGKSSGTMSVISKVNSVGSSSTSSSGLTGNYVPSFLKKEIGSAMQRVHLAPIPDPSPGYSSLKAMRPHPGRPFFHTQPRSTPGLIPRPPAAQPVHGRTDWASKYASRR

[12] = molecular target: Cyclin-dependent kinase 2 (Homo sapiens, UniProt P24941)
Note: in the data inactive means no Kd found up to 30 µM.

Compound | Kd [1] | Kd [2] | Kd [3] | Kd [4] | Kd [5] | Kd [6] | Kd [7] | Kd [8] | Kd [9] | Kd [10] | Kd [11] | Kd [12]
Cn1cc(C2=C(c3cn(C4CCN(Cc5ccccn5)CC4)c4ccccc34)C(=O)NC2=O)c2ccccc21 [ENZASTAURIN] | > 30 µM (inactive) | > 30 µM (inactive) | > 30 µM (inactive) | – | – | – | – | – | – | – | – | –
CN1C/C=C/CCOc2cccc(c2)-c2ccnc(n2)Nc2cccc(c2)C1 [ZOTIRACICLIB] | > 30 µM (inactive) | – | > 30 µM (inactive) | > 30 µM (inactive) | > 30 µM (inactive) | > 30 µM (inactive) | > 30 µM (inactive) | > 30 µM (inactive) | 0.996 µM (active) | > 30 µM (inactive) | > 30 µM (inactive) | –
Cc1cc(Nc2ncc(Cl)c(Nc3ccccc3S(=O)(=O)C(C)C)n2)c(OC(C)C)cc1C1CCNCC1 [CERITINIB] | > 30 µM (inactive) | > 30 µM (inactive) | > 30 µM (inactive) | > 30 µM (inactive) | > 30 µM (inactive) | – | > 30 µM (inactive) | > 30 µM (inactive) | > 30 µM (inactive) | – | > 30 µM (inactive) | > 30 µM (inactive)
Cc1nc2cc(-n3ncc(C(=O)c4cc5ccccc5[nH]4)c3N)ccc2[nH]1 [FGFR INHIBITOR DEBIO 1347] | – | > 30 µM (inactive) | > 30 µM (inactive) | > 30 µM (inactive) | > 30 µM (inactive) | > 30 µM (inactive) | > 30 µM (inactive) | 0.018 µM | > 30 µM (inactive) | > 30 µM (inactive) | – | –
C[C@@H](N)c1ccc(C(=O)Nc2ccnc3[nH]ccc23)cc1 [Y-39983] | > 30 µM (inactive) | > 30 µM (inactive) | > 30 µM (inactive) | > 30 µM (inactive) | > 30 µM (inactive) | > 30 µM (inactive) | > 30 µM (inactive) | > 30 µM (inactive) | 0.034 µM (active) | – | > 30 µM (inactive) | –
COc1cc(Nc2ncc3c(n2)-c2ccc(Cl)cc2C(c2c(F)cccc2OC)=NC3)ccc1C(=O)O [ALISERTIB] | > 30 µM (inactive) | > 30 µM (inactive) | > 30 µM (inactive) | – | > 30 µM (inactive) | – | > 30 µM (inactive) | – | – | > 30 µM (inactive) | > 30 µM (inactive) | –
CCS(=O)(=O)c1cccc(-c2cc(C(=O)NC3CCN(C)CC3)c(C)c3[nH]c4ncc(C)cc4c23)c1 [TAK-901] | > 30 µM (inactive) | > 30 µM (inactive) | > 30 µM (inactive) | > 30 µM (inactive) | > 30 µM (inactive) | > 30 µM (inactive) | 0.105 µM (active) | > 30 µM (inactive) | > 30 µM (inactive) | > 30 µM (inactive) | > 30 µM (inactive) | –
N#CC[C@H](C1CCCC1)n1cc(-c2ncnc3[nH]ccc23)cn1 [RUXOLITINIB] | > 30 µM (inactive) | > 30 µM (inactive) | > 30 µM (inactive) | – | – | – | – | – | – | – | – | –
CCS(=O)(=O)N1CCN(c2ccc(Nc3ncc(C(N)=O)c(NC4CC4)n3)cc2)CC1 [Cerdulatinib Hydrochloride] | > 30 µM (inactive) | 0.437 µM (active) | > 30 µM (inactive) | > 30 µM (inactive) | > 30 µM (inactive) | > 30 µM (inactive) | > 30 µM (inactive) | > 30 µM (inactive) | 3.82 µM (active) | > 30 µM (inactive) | > 30 µM (inactive) | –
CC(=O)NCC(=O)N1[C@@H]2CC[C@H]1c1ccc(Nc3ncc(C(F)(F)F)c(NC4CCC4)n3)cc12 [PF-03814735] | > 30 µM (inactive) | > 30 µM (inactive) | > 30 µM (inactive) | – | > 30 µM (inactive) | – | – | – | – | > 30 µM (inactive) | > 30 µM (inactive) | –
Cc1nc(Nc2n[nH]c3c2CN(C(=O)N[C@H](CN(C)C)c2ccccc2)C3(C)C)c2sccc2n1 [PF-03758309] | > 30 µM (inactive) | > 30 µM (inactive) | > 30 µM (inactive) | > 30 µM (inactive) | 3.87 µM (active) | > 30 µM (inactive) | > 30 µM (inactive) | > 30 µM (inactive) | 0.974 µM (active) | > 30 µM (inactive) | 0.237 µM | –
Cc1[nH]c(/C=C2\C(=O)Nc3ccccc32)c(C)c1CCC(=O)O [ORANTINIB] | > 30 µM (inactive) | > 30 µM (inactive) | > 30 µM (inactive) | – | > 30 µM (inactive) | – | – | – | – | > 30 µM (inactive) | – | –
CNC(=O)c1ccccc1Sc1ccc2c(/C=C/c3ccccn3)n[nH]c2c1 [AXITINIB] | > 30 µM (inactive) | > 30 µM (inactive) | > 30 µM (inactive) | – | – | – | – | – | – | – | – | –
C[C@@H](Oc1cc(-n2cnc3ccc(CN4CCN(C)CC4)cc32)sc1C(N)=O)c1ccccc1C(F)(F)F [GSK-461364] | > 30 µM (inactive) | > 30 µM (inactive) | > 30 µM (inactive) | – | – | – | – | – | – | > 30 µM (inactive) | – | –
CN1CCN(CCOc2cc(OC3CCOCC3)c3c(Nc4c(Cl)ccc5c4OCO5)ncnc3c2)CC1 [SARACATINIB] | > 30 µM (inactive) | > 30 µM (inactive) | > 30 µM (inactive) | > 30 µM (inactive) | > 30 µM (inactive) | > 30 µM (inactive) | – | > 30 µM (inactive) | > 30 µM (inactive) | – | > 30 µM (inactive) | > 30 µM (inactive)
CNC(=O)c1cc(Oc2ccc(NC(=O)Nc3cc(C(C)(C)C)nn3-c3ccc4ncccc4c3)c(F)c2)ccn1 [REBASTINIB] | > 30 µM (inactive) | > 30 µM (inactive) | > 30 µM (inactive) | > 30 µM (inactive) | > 30 µM (inactive) | > 30 µM (inactive) | – | 4.69 µM (active) | > 30 µM (inactive) | – | > 30 µM (inactive) | 0.199 µM (active)
CNC(=O)c1cccc2cc(Oc3ccnc4cc(OCC5(N)CC5)c(OC)cc34)ccc12 [LUCITANIB] | > 30 µM (inactive) | > 30 µM (inactive) | > 30 µM (inactive) | > 30 µM (inactive) | > 30 µM (inactive) | > 30 µM (inactive) | > 30 µM (inactive) | > 30 µM (inactive) | > 30 µM (inactive) | > 30 µM (inactive) | > 30 µM (inactive) | –
O=C(NOCCO)c1cc(CN2OCCCC2=O)c(F)c(F)c1Nc1ccc(I)cc1F [RO-4987655] | > 30 µM (inactive) | – | > 30 µM (inactive) | – | – | – | – | – | – | > 30 µM (inactive) | – | –
NC(=O)c1c(OCc2c(F)cc(Br)cc2F)nsc1NC(=O)NCCCCN1CCCC1 [OSI-632] | > 30 µM (inactive) | – | > 30 µM (inactive) | – | > 30 µM (inactive) | – | – | – | – | > 30 µM (inactive) | > 30 µM (inactive) | –
O=C(Nc1c[nH]nc1-c1nc2cc(CN3CCOCC3)ccc2[nH]1)NC1CC1 [AT-9283] | > 30 µM (inactive) | 0.094 µM (active) | > 30 µM (inactive) | > 30 µM (inactive) | > 30 µM (inactive) | > 30 µM (inactive) | 0.89 µM (active) | > 30 µM (inactive) | > 30 µM (inactive) | > 30 µM (inactive) | > 30 µM (inactive) | –
